In the supplement of paper PMC13207355:
Counter-ions that a name gives are not always drawn.

Tests used:
Details in all cases: exposure time: 72 h
[1] = system: E34 (patient-derived glioblastoma stem cells of proneural subtype); assay: phenotypic distance (Euclidean, principal components) from DMSO controls (arbitrary units); higher = stronger morphological change
[2] = system: E21 (patient-derived glioblastoma stem cells of mesenchymal subtype); assay: as above
[3] = system: FT3469 (normal neural stem cell line); assay: as above
[4] = system: E57 (patient-derived glioblastoma stem cells of mesenchymal subtype); assay: as above
[5] = system: E31 (patient-derived glioblastoma stem cells of proneural subtype); assay: as above
[6] = system: E13 (patient-derived glioblastoma stem cells of classical subtype); assay: as above
[7] = system: E28 (patient-derived glioblastoma stem cells of classical subtype); assay: as above
[8] = system: E34; assay: surviving fraction (nuclei count normalised to DMSO); higher = more cells surviving (less toxic)
[9] = system: E21; assay: as above
[10] = system: FT3469; assay: as above
[11] = system: E57; assay: as above
[12] = system: E31; assay: as above
[13] = system: E13; assay: as above
[14] = system: E28; assay: as above
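Wherever phenotypic distance (Euclidean, principal components) from DMSO controls is given: cell Painting imaging in 384-well plates, CellProfiler features reduced to at least 20 principal components, Euclidean distance versus same-plate DMSO vehicle wells (0.1% v/v), median over six images per well.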
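Wherever surviving fraction (nuclei count normalised to DMSO) is given: nuclei counted by high-content imaging of Hoechst-stained cells in laminin-coated 384-well plates, relative to 0.1% DMSO vehicle wells, with staurosporine as cell-death control.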

Cc1c(-c2ccc(-c3ccccc3F)cc2)nc2ccc(F)cc2c1C(=O)O [Brequinar sodium salt hydrate]
Details	phenotypic distance	surviving fraction
[1], 4.1 nM	0.701	–
[1], 12.3 nM	0.581	–
[1], 37 nM	0.513	–
[1], 111.1 nM	0.804	–
[1], 333.3 nM	1	–
[1], 1000 nM	1.62	–
[1], 3000 nM	2.87	–
[2], 4.1 nM	0.972	–
[2], 12.3 nM	0.391	–
[2], 37 nM	1.22	–
[2], 111.1 nM	0.607	–
[2], 333.3 nM	1.48	–
[2], 1000 nM	2.5	–
[2], 3000 nM	3.68	–
[3], 4.1 nM	0.696	–
[3], 12.3 nM	0.439	–
[3], 37 nM	0.863	–
[3], 111.1 nM	0.612	–
[3], 333.3 nM	1.17	–
[3], 1000 nM	1.76	–
[3], 3000 nM	1.88	–
[4], 4.1 nM	1.62	–
[4], 12.3 nM	0.514	–
[4], 37 nM	1.88	–
[4], 111.1 nM	3.44	–
[4], 333.3 nM	5.23	–
[4], 1000 nM	6.97	–
[4], 3000 nM	6.84	–
[5], 4.1 nM	0.556	–
[5], 12.3 nM	0.921	–
[5], 37 nM	0.734	–
[5], 111.1 nM	0.725	–
[5], 333.3 nM	2.59	–
[5], 1000 nM	3.28	–
[5], 3000 nM	3.43	–
[6], 4.1 nM	0.5	–
[6], 12.3 nM	0.844	–
[6], 37 nM	0.761	–
[6], 111.1 nM	1.8	–
[6], 333.3 nM	4.41	–
[6], 1000 nM	4.43	–
[6], 3000 nM	5.02	–
[7], 4.1 nM	1.07	–
[7], 12.3 nM	0.503	–
[7], 37 nM	0.823	–
[7], 111.1 nM	1.12	–
[7], 333.3 nM	1.2	–
[7], 1000 nM	2.26	–
[7], 3000 nM	2.28	–
[8], 4.1 nM	–	0.811
[8], 12.3 nM	–	0.864
[8], 37 nM	–	0.96
[8], 111.1 nM	–	1.01
[8], 333.3 nM	–	0.909
[8], 1000 nM	–	0.888
[8], 3000 nM	–	0.794
[9], 4.1 nM	–	0.951
[9], 12.3 nM	–	1.04
[9], 37 nM	–	0.918
[9], 111.1 nM	–	0.817
[9], 333.3 nM	–	0.699
[9], 1000 nM	–	0.649
[9], 3000 nM	–	0.444
[10], 4.1 nM	–	0.883
[10], 12.3 nM	–	0.941
[10], 37 nM	–	0.996
[10], 111.1 nM	–	1
[10], 333.3 nM	–	0.858
[10], 1000 nM	–	0.742
[10], 3000 nM	–	0.65
[11], 4.1 nM	–	0.969
[11], 12.3 nM	–	0.999
[11], 37 nM	–	0.871
[11], 111.1 nM	–	0.67
[11], 333.3 nM	–	0.458
[11], 1000 nM	–	0.372
[11], 3000 nM	–	0.325
[12], 4.1 nM	–	1.1
[12], 12.3 nM	–	1
[12], 37 nM	–	0.96
[12], 111.1 nM	–	1.13
[12], 333.3 nM	–	0.724
[12], 1000 nM	–	0.392
[12], 3000 nM	–	0.407
[13], 4.1 nM	–	1.01
[13], 12.3 nM	–	1.08
[13], 37 nM	–	1.03
[13], 111.1 nM	–	0.858
[13], 333.3 nM	–	0.726
[13], 1000 nM	–	0.615
[13], 3000 nM	–	0.471
[14], 4.1 nM	–	1.13
[14], 12.3 nM	–	1.03
[14], 37 nM	–	0.963
[14], 111.1 nM	–	0.807
[14], 333.3 nM	–	0.606
[14], 1000 nM	–	0.42
[14], 3000 nM	–	0.344
